Assay results reported in PubChem BioAssay (NCI).
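These data come from cells grown in 96-well plates and exposed to compound for 48 hours at five concentrations. TGI is the concentration that stops growth completely.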

Legend:
Experiment in all cases: inhibition of tumour cell growth, NCI panel, 48 h
A498 renal = test system: A498 renal
ACHN renal = test system: ACHN renal
CCRF-CEM leukemia = test system: CCRF-CEM leukemia
COLO 205 colon = test system: COLO 205 colon
DMS 114 small cell lung = test system: DMS 114 small cell lung
HCT-116 colon = test system: HCT-116 colon
HL-60(TB) leukemia = test system: HL-60(TB) leukemia
HOP-62 NSCLC = test system: HOP-62 NSCLC
HOP-92 NSCLC = test system: HOP-92 NSCLC
HT29 colon = test system: HT29 colon
IGROV1 ovarian = test system: IGROV1 ovarian
KM12 colon = test system: KM12 colon
KM20L2 colon = test system: KM20L2 colon
LXFL 529 NSCLC = test system: LXFL 529 NSCLC
M14 melanoma = test system: M14 melanoma
M19-MEL melanoma = test system: M19-MEL melanoma
MALME-3M melanoma = test system: MALME-3M melanoma
NCI-H23 lung = test system: NCI-H23 lung
NCI-H460 lung = test system: NCI-H460 lung
OVCAR-3 ovarian = test system: OVCAR-3 ovarian
OVCAR-4 ovarian = test system: OVCAR-4 ovarian
OVCAR-5 ovarian = test system: OVCAR-5 ovarian
RPMI-8226 leukemia = test system: RPMI-8226 leukemia
RXF 393 renal = test system: RXF 393 renal
SF-268 CNS = test system: SF-268 CNS
SF-295 CNS = test system: SF-295 CNS
SF-539 CNS = test system: SF-539 CNS
SK-MEL-2 melanoma = test system: SK-MEL-2 melanoma
SK-MEL-28 melanoma = test system: SK-MEL-28 melanoma
SK-OV-3 ovarian = test system: SK-OV-3 ovarian
SNB-19 CNS = test system: SNB-19 CNS
SNB-75 CNS = test system: SNB-75 CNS
SNB-78 CNS = test system: SNB-78 CNS
U251 CNS = test system: U251 CNS
UACC-257 melanoma = test system: UACC-257 melanoma
UACC-62 melanoma = test system: UACC-62 melanoma
UO-31 renal = test system: UO-31 renal
A549 NSCLC = test system: A549 NSCLC
DMS 273 small cell lung = test system: DMS 273 small cell lung
EKVX NSCLC = test system: EKVX NSCLC
HCC-2998 colon = test system: HCC-2998 colon
HCT-15 colon = test system: HCT-15 colon
HOP-18 NSCLC = test system: HOP-18 NSCLC
K-562 leukemia = test system: K-562 leukemia
LOX IMVI melanoma = test system: LOX IMVI melanoma
MOLT-4 leukemia = test system: MOLT-4 leukemia
NCI-H226 lung = test system: NCI-H226 lung
OVCAR-8 ovarian = test system: OVCAR-8 ovarian
SK-MEL-5 melanoma = test system: SK-MEL-5 melanoma
SN12C renal = test system: SN12C renal
SR leukemia = test system: SR leukemia
SW-620 colon = test system: SW-620 colon
TK-10 renal = test system: TK-10 renal
786-0 renal = test system: 786-0 renal
BT-549 breast = test system: BT-549 breast
CAKI-1 renal = test system: CAKI-1 renal
DU-145 prostate = test system: DU-145 prostate
HS 578T breast = test system: HS 578T breast
MCF7 breast = test system: MCF7 breast
MDA-MB-231 breast = test system: MDA-MB-231 breast
MDA-MB-435 = test system: MDA-MB-435
MDA-N = test system: MDA-N
NCI-H522 lung = test system: NCI-H522 lung
NCI/ADR-RES ovarian = test system: NCI/ADR-RES ovarian
PC-3 prostate = test system: PC-3 prostate
T-47D breast = test system: T-47D breast

CCCCOP(=O)(OCCCC)/C(C#N)=C/c1ccco1
TGI (A498 renal): > 100 µM
TGI (ACHN renal): > 100 µM
TGI (CCRF-CEM leukemia): > 100 µM
TGI (COLO 205 colon): > 100 µM
TGI (DMS 114 small cell lung): > 100 µM
TGI (HCT-116 colon): > 100 µM
TGI (HL-60(TB) leukemia): > 100 µM
TGI (HOP-62 NSCLC): > 100 µM
TGI (HOP-92 NSCLC): > 100 µM
TGI (HT29 colon): > 100 µM
TGI (IGROV1 ovarian): > 100 µM
TGI (KM12 colon): > 100 µM
TGI (KM20L2 colon): > 100 µM
TGI (LXFL 529 NSCLC): > 100 µM
TGI (M14 melanoma): > 100 µM
TGI (M19-MEL melanoma): > 100 µM
TGI (MALME-3M melanoma): > 100 µM
TGI (NCI-H23 lung): > 100 µM
TGI (NCI-H460 lung): > 100 µM
TGI (OVCAR-3 ovarian): > 100 µM
TGI (OVCAR-4 ovarian): > 100 µM
TGI (OVCAR-5 ovarian): > 100 µM
TGI (RPMI-8226 leukemia): > 100 µM
TGI (RXF 393 renal): > 100 µM
TGI (SF-268 CNS): > 100 µM
TGI (SF-295 CNS): > 100 µM
TGI (SF-539 CNS): > 100 µM
TGI (SK-MEL-2 melanoma): > 100 µM
TGI (SK-MEL-28 melanoma): > 100 µM
TGI (SK-OV-3 ovarian): > 100 µM
TGI (SNB-19 CNS): > 100 µM
TGI (SNB-75 CNS): > 100 µM
TGI (SNB-78 CNS): > 100 µM
TGI (U251 CNS): > 100 µM
TGI (UACC-257 melanoma): > 100 µM
TGI (UACC-62 melanoma): > 100 µM
TGI (UO-31 renal): > 100 µM

Cc1cc(=O)[nH]c(NN2C(Cl)C(=O)C2c2cccc([N+](=O)[O-])c2)n1 (stereo not drawn)
TGI (A549 NSCLC): > 100 µM
TGI (ACHN renal): > 100 µM
TGI (CCRF-CEM leukemia): 10.3 µM
TGI (COLO 205 colon): 51.6 µM
TGI (DMS 114 small cell lung): 55.4 µM
TGI (DMS 273 small cell lung): 31.2 µM
TGI (EKVX NSCLC): > 100 µM
TGI (HCC-2998 colon): 36.8 µM
TGI (HCT-116 colon): 49.9 µM
TGI (HCT-15 colon): 31.5 µM
TGI (HL-60(TB) leukemia): 36.8 µM
TGI (HOP-18 NSCLC): 78 µM
TGI (HOP-62 NSCLC): > 100 µM
TGI (HOP-92 NSCLC): 34.1 µM
TGI (HT29 colon): 49.9 µM
TGI (K-562 leukemia): 55.3 µM
TGI (KM12 colon): 80.9 µM
TGI (KM20L2 colon): > 100 µM
TGI (LOX IMVI melanoma): 26.9 µM
TGI (LXFL 529 NSCLC): 29.9 µM
TGI (M14 melanoma): 32.2 µM
TGI (M19-MEL melanoma): 49.1 µM
TGI (MOLT-4 leukemia): 44.9 µM
TGI (NCI-H226 lung): 46.9 µM
TGI (NCI-H23 lung): 52.4 µM
TGI (NCI-H460 lung): > 100 µM
TGI (OVCAR-3 ovarian): 32.3 µM
TGI (OVCAR-4 ovarian): 57 µM
TGI (OVCAR-5 ovarian): > 100 µM
TGI (OVCAR-8 ovarian): > 100 µM
TGI (RPMI-8226 leukemia): 40.3 µM
TGI (RXF 393 renal): 22.5 µM
TGI (SF-268 CNS): > 100 µM
TGI (SK-MEL-2 melanoma): 36.2 µM
TGI (SK-MEL-28 melanoma): 47.2 µM
TGI (SK-MEL-5 melanoma): 33.5 µM
TGI (SN12C renal): 37.6 µM
TGI (SNB-19 CNS): > 100 µM
TGI (SNB-75 CNS): > 100 µM
TGI (SNB-78 CNS): > 100 µM
TGI (SR leukemia): 57.8 µM
TGI (SW-620 colon): > 100 µM
TGI (TK-10 renal): > 100 µM
TGI (U251 CNS): 47.4 µM
TGI (UACC-257 melanoma): > 100 µM
TGI (UACC-62 melanoma): 42.5 µM
TGI (UO-31 renal): > 100 µM

N#CC1=C(C#N)/C(=C(\C#N)C(C#N)C#N)N=C1N
TGI (786-0 renal): > 100 µM
TGI (A498 renal): 65.4 µM
TGI (A549 NSCLC): 54.9 µM
TGI (ACHN renal): > 100 µM
TGI (BT-549 breast): > 78.7 µM
TGI (CAKI-1 renal): > 100 µM
TGI (CCRF-CEM leukemia): 50.7 µM
TGI (COLO 205 colon): 57.3 µM
TGI (DU-145 prostate): > 100 µM
TGI (EKVX NSCLC): > 100 µM
TGI (HCC-2998 colon): > 100 µM
TGI (HCT-116 colon): > 100 µM
TGI (HCT-15 colon): 64.3 µM
TGI (HL-60(TB) leukemia): 39.1 µM
TGI (HOP-62 NSCLC): > 66.6 µM
TGI (HOP-92 NSCLC): > 75 µM
TGI (HS 578T breast): > 100 µM
TGI (HT29 colon): 62.1 µM
TGI (IGROV1 ovarian): > 100 µM
TGI (K-562 leukemia): > 100 µM
TGI (KM12 colon): > 100 µM
TGI (LOX IMVI melanoma): 55.8 µM
TGI (M14 melanoma): 34.3 µM
TGI (MALME-3M melanoma): 38.2 µM
TGI (MCF7 breast): > 100 µM
TGI (MDA-MB-231 breast): > 100 µM
TGI (MDA-MB-435): 36.7 µM
TGI (MDA-N): 30.3 µM
TGI (MOLT-4 leukemia): 64.4 µM
TGI (NCI-H226 lung): 97.3 µM
TGI (NCI-H23 lung): > 100 µM
TGI (NCI-H460 lung): > 100 µM
TGI (NCI-H522 lung): 47.7 µM
TGI (NCI/ADR-RES ovarian): > 100 µM
TGI (OVCAR-3 ovarian): > 100 µM
TGI (OVCAR-4 ovarian): > 100 µM
TGI (OVCAR-5 ovarian): > 93.9 µM
TGI (OVCAR-8 ovarian): > 100 µM
TGI (PC-3 prostate): > 100 µM
TGI (RPMI-8226 leukemia): > 81.3 µM
TGI (RXF 393 renal): > 100 µM
TGI (SF-268 CNS): > 100 µM
TGI (SF-295 CNS): > 100 µM
TGI (SF-539 CNS): 54.5 µM
TGI (SK-MEL-2 melanoma): 31.6 µM
TGI (SK-MEL-28 melanoma): 52 µM
TGI (SK-MEL-5 melanoma): 31.8 µM
TGI (SK-OV-3 ovarian): > 100 µM
TGI (SN12C renal): > 100 µM
TGI (SNB-19 CNS): > 100 µM
TGI (SNB-75 CNS): > 81.8 µM
TGI (SR leukemia): 66.7 µM
TGI (SW-620 colon): > 100 µM
TGI (T-47D breast): > 100 µM
TGI (TK-10 renal): > 68.3 µM
TGI (U251 CNS): > 100 µM
TGI (UACC-257 melanoma): 51.7 µM
TGI (UACC-62 melanoma): 30.3 µM
TGI (UO-31 renal): > 100 µM
